Our source for the IC50 values is patent publication US11034672B1, “Tyrosine kinase inhibitor compositions, methods of making and methods of use” (Black Diamond Therapeutics, Inc., priority 2018, dated 2021).

Common to all, as to type: cell-based
Assay [1] concerns the target T1, EGFR V3 (Homo sapiens, UniProt P00533, DELINS30-297G).
T1 construct: expressed in transfected cells; host or cells: BaF3 (murine pro-B), retroviral pMXs-IRES-Blasticidin
Nature of the assay: BaF3 cell proliferation assay, EGFR V3 (Table A). Conditions: potency code, 3 days, CellTiterGlo, read-out: EGFR V3 (Activity for Inhibiting EGFR). A digest of the protocol: (§1)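 Proliferation read-out is used in BaF3 cells engineered to express each EGFR or HER2 form; EC50 is derived from it. Transduced populations are selected with Blasticidin, washed in PBS and cultured without IL-3.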
In general terms: ATP-based viability assays read luminescence as a measure of living cells.

Assay [2] has as its target T2, HER2 S310F (Homo sapiens, UniProt P04626, S310F).
T2 construct: expressed in transfected cells; host or cells: BaF3 (murine pro-B)
In words: BaF3 cell proliferation assay, HER2 S310F (Table B). Particulars: potency code, 3 days, CellTiterGlo, read-out: HER2 S310F (Activity for Inhibiting HER2).

For assay [3], the target named is T3, EGFR NPH (Homo sapiens, UniProt P00533, DUP771-773).
T3 construct: expressed in transfected cells; host or cells: BaF3 (murine pro-B), retroviral pMXs-IRES-Blasticidin
Nature of the assay: BaF3 cell proliferation assay, EGFR NPH (Table A). Conditions: potency code, 3 days, CellTiterGlo, read-out: EGFR NPH (Activity for Inhibiting EGFR). The procedure: (§2) Retroviral Production: EGFR mutants were subcloned into pMXs-IRES-Blasticidin (RTV-016, Cell Biolabs, San Diego, Calif.). Retroviral expression vector retrovirus was produced by transient transfection of HEK 293T cells with the retroviral EGFR mutant expression vector pMXs-IRES-Blasticidin (RTV-016, Cell Biolabs), pCMV-Gag-Pol vector and pCMV-VSV-G-Envelope vector. Briefly, HEK 293T/17 cells were plated in 100 mm collagen coated plate (354450, Corning Life Sciences, Tewksbury, Mass.) (4×10^5 per plate) and incubated overnight. The next day, retroviral plasmids (3 μg of EGFR mutant, 1.0 μg of pCMV-Gag-Pol and 0.5 μg pCMV-VSV-G) were mixed in 500 μl of Optimem (31985, Life Technologies). The mixture was incubated at room temperature for 5 min and then added to Optimem containing transfection reagent Lipofectamine (11668, Invitrogen) and incubated for 20 minutes. Mixture was then added dropwise to HEK 293T cells. The next day the medium was replaced with fresh culture medium and retrovirus was harvested @ 24 and 48 hrs.
(§3) Generation of EGFR mutant stable cell lines: BaF3 cells (1.5E5 cells) were infected with 1 ml of viral supernatant supplemented with 8 μg/ml polybrene by centrifuging for 30 min at 1000 rpm. Cells were placed in a 37° C. incubator overnight. Cells were then spun for 5 minutes to pellet the cells. Supernatant was removed and cells re-infected a fresh 1 ml of viral supernatant supplemented with 8 μg/ml polybrene by centrifuging for 30 min at 1000 rpm. Cells were placed in 37° C. incubator overnight. […] After 48 hours cells were selected for retroviral infection in 10 μg/ml Blasticidin for one week. Blasticidin resistant populations were washed twice in phosphate buffered saline before plating in media lacking IL-3 to select for IL-3 independent growth.
(§4) EC50 values were determined with the same application.

The target of assay [4] is T2, HER2 S310F. In words: Activity for inhibiting HER2 (Table B), HER2 S310F. Conditions: read-out: HER2 S310F, potency code (IC50). The procedure: as §4
The target of assay [5] is T4, HER2 YVMA (Homo sapiens, UniProt P04626, INS775YVMA).
T4 construct: expressed in transfected cells; host or cells: BaF3 (murine pro-B)
Nature of the assay: Activity for inhibiting HER2 (Table B), HER2 YVMA. Particulars: read-out: HER2 YVMA, potency code (IC50). The procedure: as §4

Assay [6] deals with T5, EGFR SVD (Homo sapiens, UniProt P00533, DUP768-770).
T5 construct: expressed in transfected cells; host or cells: BaF3 (murine pro-B), retroviral pMXs-IRES-Blasticidin
Nature of the assay: Activity for inhibiting EGFR (Table A), EGFR SVD. Particulars: read-out: EGFR SVD, potency code (IC50).

For assay [7], the target named is T1, EGFR V3. Nature of the assay: Activity for inhibiting EGFR (Table A), EGFR V3 (EGFR-Viii). Conditions: read-out: EGFR V3, potency code (IC50).
Assay [8] deals with T3, EGFR NPH. In words: Activity for inhibiting EGFR (Table A), EGFR NPH. Conditions: read-out: EGFR NPH, potency code (IC50).
The target in assay [9] is T4, HER2 YVMA. Nature of the assay: BaF3 cell proliferation assay, HER2 YVMA (Table B). Conditions: potency code, 3 days, CellTiterGlo, read-out: HER2 YVMA (Activity for Inhibiting HER2).
In assay [10] the target is T6, EGFR WT (Homo sapiens, UniProt P00533). In words: BaF3 cell proliferation assay, EGFR WT (Table A). Conditions: potency code, 3 days, CellTiterGlo, read-out: EGFR WT (Activity for Inhibiting EGFR). A digest of the protocol: as §1
Assay [11] has as its target T5, EGFR SVD. In words: BaF3 cell proliferation assay, EGFR SVD (Table A). Particulars: potency code, 3 days, CellTiterGlo, read-out: EGFR SVD (Activity for Inhibiting EGFR). The procedure: as §2, §3, §4
The target of assay [12] is T6, EGFR WT. In words: Activity for inhibiting EGFR (Table A), EGFR WT. Conditions: read-out: EGFR WT, potency code (IC50).

T5 sequence (P00533 with tags, fused parts or gaps DUP768-770): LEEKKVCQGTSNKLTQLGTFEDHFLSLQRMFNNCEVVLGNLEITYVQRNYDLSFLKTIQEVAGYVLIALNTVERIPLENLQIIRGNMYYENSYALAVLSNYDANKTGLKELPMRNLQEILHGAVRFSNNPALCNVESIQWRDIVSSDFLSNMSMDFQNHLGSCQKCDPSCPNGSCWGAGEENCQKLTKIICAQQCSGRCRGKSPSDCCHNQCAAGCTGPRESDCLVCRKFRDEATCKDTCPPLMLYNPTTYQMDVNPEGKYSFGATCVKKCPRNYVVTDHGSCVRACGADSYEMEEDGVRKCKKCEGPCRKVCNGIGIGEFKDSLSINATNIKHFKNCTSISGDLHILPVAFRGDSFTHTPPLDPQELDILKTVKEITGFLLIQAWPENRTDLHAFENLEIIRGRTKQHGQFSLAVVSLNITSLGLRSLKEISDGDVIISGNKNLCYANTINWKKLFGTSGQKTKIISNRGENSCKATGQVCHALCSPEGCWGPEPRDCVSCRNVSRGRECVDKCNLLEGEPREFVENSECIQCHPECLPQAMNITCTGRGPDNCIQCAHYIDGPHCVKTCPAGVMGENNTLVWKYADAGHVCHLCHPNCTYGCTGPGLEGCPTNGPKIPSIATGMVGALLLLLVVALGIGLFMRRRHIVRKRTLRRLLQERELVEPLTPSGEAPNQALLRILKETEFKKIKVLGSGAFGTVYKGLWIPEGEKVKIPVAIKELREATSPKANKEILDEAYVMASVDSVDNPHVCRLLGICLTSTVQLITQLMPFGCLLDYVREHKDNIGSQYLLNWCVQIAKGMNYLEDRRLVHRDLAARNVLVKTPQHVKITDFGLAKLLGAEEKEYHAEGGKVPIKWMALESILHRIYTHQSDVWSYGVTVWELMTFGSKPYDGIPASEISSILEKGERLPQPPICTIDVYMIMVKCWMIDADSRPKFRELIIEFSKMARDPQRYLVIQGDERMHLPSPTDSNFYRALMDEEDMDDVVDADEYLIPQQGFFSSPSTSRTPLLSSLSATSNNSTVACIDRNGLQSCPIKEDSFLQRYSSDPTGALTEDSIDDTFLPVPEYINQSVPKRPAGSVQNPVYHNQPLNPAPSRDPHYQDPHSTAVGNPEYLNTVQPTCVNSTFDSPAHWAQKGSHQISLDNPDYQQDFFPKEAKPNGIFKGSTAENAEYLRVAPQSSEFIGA
T3 sequence (P00533 with tags, fused parts or gaps DUP771-773): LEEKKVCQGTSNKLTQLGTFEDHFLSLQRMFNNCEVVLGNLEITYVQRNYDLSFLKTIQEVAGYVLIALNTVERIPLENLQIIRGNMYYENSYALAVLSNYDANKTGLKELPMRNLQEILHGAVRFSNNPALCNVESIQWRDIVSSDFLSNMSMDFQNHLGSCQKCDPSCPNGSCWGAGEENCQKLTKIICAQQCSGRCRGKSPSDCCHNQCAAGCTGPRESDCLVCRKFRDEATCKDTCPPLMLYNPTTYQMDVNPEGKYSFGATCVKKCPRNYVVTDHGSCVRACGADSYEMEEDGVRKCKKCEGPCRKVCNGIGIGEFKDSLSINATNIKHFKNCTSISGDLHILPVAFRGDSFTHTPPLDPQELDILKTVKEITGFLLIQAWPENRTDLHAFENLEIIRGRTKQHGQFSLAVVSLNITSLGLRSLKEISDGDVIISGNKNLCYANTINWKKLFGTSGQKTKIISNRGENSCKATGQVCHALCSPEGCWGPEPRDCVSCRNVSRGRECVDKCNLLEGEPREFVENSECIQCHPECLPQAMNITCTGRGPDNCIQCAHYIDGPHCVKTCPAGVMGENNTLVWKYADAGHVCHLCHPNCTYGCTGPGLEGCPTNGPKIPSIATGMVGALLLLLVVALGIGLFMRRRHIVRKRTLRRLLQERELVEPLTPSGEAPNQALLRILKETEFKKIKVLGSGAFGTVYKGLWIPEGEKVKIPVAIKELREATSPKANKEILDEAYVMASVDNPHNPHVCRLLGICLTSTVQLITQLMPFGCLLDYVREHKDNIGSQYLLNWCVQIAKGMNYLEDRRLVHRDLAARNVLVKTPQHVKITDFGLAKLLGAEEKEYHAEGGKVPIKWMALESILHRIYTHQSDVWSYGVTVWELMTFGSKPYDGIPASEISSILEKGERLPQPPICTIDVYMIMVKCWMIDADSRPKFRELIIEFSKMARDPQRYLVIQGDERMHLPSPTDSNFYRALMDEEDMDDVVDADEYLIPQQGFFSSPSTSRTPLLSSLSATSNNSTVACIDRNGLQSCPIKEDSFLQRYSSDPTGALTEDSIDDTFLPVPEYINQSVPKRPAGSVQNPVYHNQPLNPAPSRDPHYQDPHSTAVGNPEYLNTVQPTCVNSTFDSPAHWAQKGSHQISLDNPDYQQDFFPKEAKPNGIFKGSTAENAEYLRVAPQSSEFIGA
T4 sequence (P04626 with tags, fused parts or gaps INS775YVMA): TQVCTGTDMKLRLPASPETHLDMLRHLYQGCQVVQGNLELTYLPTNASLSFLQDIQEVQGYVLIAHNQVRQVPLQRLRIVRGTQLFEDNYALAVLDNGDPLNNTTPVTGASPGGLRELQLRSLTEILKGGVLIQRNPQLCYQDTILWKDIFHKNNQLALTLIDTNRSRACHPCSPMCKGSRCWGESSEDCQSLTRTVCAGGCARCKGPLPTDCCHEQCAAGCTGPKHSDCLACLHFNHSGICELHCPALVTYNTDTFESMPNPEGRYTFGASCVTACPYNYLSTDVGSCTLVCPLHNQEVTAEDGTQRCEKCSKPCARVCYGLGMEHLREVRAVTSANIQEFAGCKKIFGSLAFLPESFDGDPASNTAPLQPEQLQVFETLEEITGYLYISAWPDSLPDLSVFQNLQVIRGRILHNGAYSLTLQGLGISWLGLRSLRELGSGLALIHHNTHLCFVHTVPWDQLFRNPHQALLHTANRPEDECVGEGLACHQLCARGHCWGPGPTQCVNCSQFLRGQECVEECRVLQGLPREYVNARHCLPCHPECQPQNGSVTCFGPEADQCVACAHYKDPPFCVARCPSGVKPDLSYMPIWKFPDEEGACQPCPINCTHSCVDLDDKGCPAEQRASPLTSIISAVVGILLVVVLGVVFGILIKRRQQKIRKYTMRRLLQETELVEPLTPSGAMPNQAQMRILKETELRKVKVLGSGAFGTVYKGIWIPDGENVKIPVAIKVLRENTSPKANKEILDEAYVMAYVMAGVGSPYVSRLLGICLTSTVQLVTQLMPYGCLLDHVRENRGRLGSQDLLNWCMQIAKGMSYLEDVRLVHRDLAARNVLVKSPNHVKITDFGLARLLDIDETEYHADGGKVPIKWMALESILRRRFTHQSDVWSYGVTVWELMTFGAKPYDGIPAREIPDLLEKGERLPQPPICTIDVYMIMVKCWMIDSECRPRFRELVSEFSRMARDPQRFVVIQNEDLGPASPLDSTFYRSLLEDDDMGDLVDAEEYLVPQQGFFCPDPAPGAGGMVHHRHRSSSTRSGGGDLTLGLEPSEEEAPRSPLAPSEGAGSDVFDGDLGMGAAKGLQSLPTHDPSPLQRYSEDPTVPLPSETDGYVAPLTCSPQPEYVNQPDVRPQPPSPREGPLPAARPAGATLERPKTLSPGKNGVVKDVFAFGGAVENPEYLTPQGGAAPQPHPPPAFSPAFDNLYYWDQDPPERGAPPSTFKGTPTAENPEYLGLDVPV
T1 sequence (P00533 with tags, fused parts or gaps DELINS30-297G): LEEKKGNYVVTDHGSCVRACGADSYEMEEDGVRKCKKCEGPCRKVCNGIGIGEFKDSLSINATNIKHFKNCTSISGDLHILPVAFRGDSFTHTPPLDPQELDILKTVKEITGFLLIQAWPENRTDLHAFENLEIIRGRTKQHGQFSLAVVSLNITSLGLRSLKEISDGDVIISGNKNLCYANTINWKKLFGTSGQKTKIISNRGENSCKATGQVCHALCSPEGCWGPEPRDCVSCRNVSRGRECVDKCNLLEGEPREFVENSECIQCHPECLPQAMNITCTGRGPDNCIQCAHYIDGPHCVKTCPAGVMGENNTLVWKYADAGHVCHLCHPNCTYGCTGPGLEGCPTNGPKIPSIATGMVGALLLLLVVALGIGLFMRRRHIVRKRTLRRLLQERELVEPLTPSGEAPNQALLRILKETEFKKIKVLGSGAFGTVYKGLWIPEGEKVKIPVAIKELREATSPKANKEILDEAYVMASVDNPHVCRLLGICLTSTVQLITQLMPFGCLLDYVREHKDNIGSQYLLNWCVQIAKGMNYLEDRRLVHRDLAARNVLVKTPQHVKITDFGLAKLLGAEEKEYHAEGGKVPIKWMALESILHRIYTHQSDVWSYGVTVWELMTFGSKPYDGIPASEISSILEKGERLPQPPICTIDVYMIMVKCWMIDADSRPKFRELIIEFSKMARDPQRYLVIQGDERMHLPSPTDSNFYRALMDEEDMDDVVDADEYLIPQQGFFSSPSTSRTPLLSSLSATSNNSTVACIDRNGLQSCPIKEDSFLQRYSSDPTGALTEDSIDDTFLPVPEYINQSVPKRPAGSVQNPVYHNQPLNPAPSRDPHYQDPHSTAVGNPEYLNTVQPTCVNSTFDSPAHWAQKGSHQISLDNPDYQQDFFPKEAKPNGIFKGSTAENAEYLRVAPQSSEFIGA

For the molecule `C=CC(=O)Nc1cc2c(Nc3ccc(OCc4ccccn4)c(Cl)c3)ncnc2cc1OCCCN1CCN(C)CC1` [compound 69], the IC50 is 10 to 20 nM at EGFR V3 [1]; 10 to 20 nM on HER2 S310F [2]; 20 to 30 nM at EGFR NPH [3]; 10 to 20 nM at HER2 S310F [4]; 20 to 30 nM on HER2 YVMA [5]; 20 to 30 nM at EGFR SVD [6]. Besides, the IC50 at EGFR V3 [7] was in the range of 10 to 20 nM; on EGFR NPH [8] it was 20 to 30 nM; on HER2 YVMA [9] it was 20 to 30 nM; on EGFR WT [10], 300 to 500 nM; on EGFR SVD [11] it was 20 to 30 nM; on EGFR WT [12], 300 to 500 nM.

Take `CC#CC(=O)Nc1cc2c(Nc3ccc(OCc4ccccn4)c(Cl)c3)ncnc2cc1OCCN1CCN(C)CC1` [compound 70]: the IC50 on EGFR V3 [1] lay in the range of 10 to 20 nM; on HER2 S310F [2], 5 to 10 nM; on EGFR NPH [3], 50 to 100 nM; on HER2 S310F [4] it was 5 to 10 nM; at HER2 YVMA [5], 5 to 10 nM; at EGFR SVD [6] it was 30 to 50 nM. Also, the IC50 at EGFR V3 [7] lay in the range of 10 to 20 nM; on EGFR NPH [8] it was 50 to 100 nM; on HER2 YVMA [9] it was 5 to 10 nM; on EGFR WT [10], 50 to 100 nM; at EGFR SVD [11], 30 to 50 nM; on EGFR WT [12], 50 to 100 nM.

In the case of `C=CC(=O)Nc1cc2c(Nc3ccc(OCc4ccccn4)c(Cl)c3)ncnc2cc1C#CC(C)(C)N1CCCC1` [compound 84, N-(4-((3-chloro-4-(pyridin-2-ylmethoxy)phenyl)amino)-7-(3-methyl-3-(pyrrolidin-1-yl)but-1-yn-1-yl)quinazolin-6-yl)acrylamide], the IC50 at EGFR V3 [1] was 20 to 30 nM; at HER2 S310F [2], 5 to 10 nM; at EGFR NPH [3], 50 to 100 nM; at HER2 S310F [4], 5 to 10 nM; on HER2 YVMA [5] it was 30 to 50 nM; on EGFR SVD [6], 50 to 100 nM. Moreover, the IC50 on EGFR V3 [7] lay in the range of 20 to 30 nM; on EGFR NPH [8] it was 50 to 100 nM; on HER2 YVMA [9] it was 30 to 50 nM; on EGFR WT [10], 500 to 1000 nM; on EGFR SVD [11] it was 50 to 100 nM; on EGFR WT [12], 500 to 1000 nM.

For `C=CC(=O)Nc1cc2c(Nc3ccc(OCc4ccccn4)c(Cl)c3)ncnc2cc1C#C[C@H]1CCN(C)C1` [compound 85, N-(4-((3-chloro-4-(pyridin-2-ylmethoxy)phenyl)amino)-7-((1-methylpyrrolidin-3-yl)ethynyl)quinazolin-6-yl)acrylamide], the IC50 at EGFR V3 [1] was in the range of 20 to 30 nM; on HER2 S310F [2] it was 5 to 10 nM; on EGFR NPH [3], 20 to 30 nM; on HER2 S310F [4], 5 to 10 nM; at HER2 YVMA [5], 30 to 50 nM; on EGFR SVD [6], 20 to 30 nM. Further, the IC50 on EGFR V3 [7] was in the range of 20 to 30 nM; at EGFR NPH [8], 20 to 30 nM; on HER2 YVMA [9], 30 to 50 nM; on EGFR WT [10], 200 to 300 nM; at EGFR SVD [11], 20 to 30 nM; at EGFR WT [12], 200 to 300 nM.

Turning to `C=CC(=O)Nc1cc2c(Nc3ccc(OCc4ccccn4)c(Cl)c3)ncnc2cc1OCCC1(N(C)C)CC1` [compound 102, N-(4-((3-chloro-4-(pyridin-2-ylmethoxy)phenyl)amino)-7-(2-(1-(dimethylamino)cyclopropyl)ethoxy)quinazolin-6-yl)acrylamide], the IC50 on EGFR V3 [1] was in the range of 30 to 50 nM; at HER2 S310F [2], 20 to 30 nM; at EGFR NPH [3] it was 50 to 100 nM; on HER2 S310F [4] it was 20 to 30 nM; on HER2 YVMA [5] it was 50 to 100 nM; on EGFR SVD [6], 30 to 50 nM. The IC50 on EGFR V3 [7] lay in the range of 30 to 50 nM; on EGFR NPH [8], 50 to 100 nM; on HER2 YVMA [9], 50 to 100 nM; at EGFR WT [10] it was 500 to 1000 nM; on EGFR SVD [11] it was 30 to 50 nM; at EGFR WT [12] it was 500 to 1000 nM.
